Test system: MV-4-11 cells
Assay: Gene expression microarray analysis (Affymetrix PrimeView) and GSEA
Type: cell-based, human
Design: RFU PODN (11730768_x_at) / Fold change /veh PODN (11730768_x_at) / RFU LINC00158 (11744669_a_at) / Fold change /veh LINC00158 (11744669_a_at) / RFU DUSP10 (11751237_a_at) / Fold change /veh DUSP10 (11751237_a_at) / RFU ID3 (11757404_x_at) / Fold change /veh ID3 (11757404_x_at) / RFU PLEKHG5 (11737974_s_at) / Fold change /veh PLEKHG5 (11737974_s_at) / RFU LRRC4B (11730491_at) / Fold change /veh LRRC4B (11730491_at) / RFU GIMAP4 (11747438_a_at) / Fold change /veh GIMAP4 (11747438_a_at) / RFU KRT8 (11758183_x_at) / Fold change /veh KRT8 (11758183_x_at) / RFU CNN1 (11734310_a_at) / Fold change /veh CNN1 (11734310_a_at) / RFU VPS37D (11726825_at) / Fold change /veh VPS37D (11726825_at) / RFU C10orf10 (11716522_x_at) / Fold change /veh C10orf10 (11716522_x_at) / RFU KIR2DL2 /// KIR2DL4 /// KIR2DL5A /// KIR2DL5B /// KIR2DS1 /// KIR2DS2 /// KIR2DS3 /// KIR2DS4 /// KIR3DL3 /// KIR3DL3 /// KIR3DS1 (11738374_at) / Fold change /veh KIR2DL2 /// KIR2DL4 /// KIR2DL5A /// KIR2DL5B /// KIR2DS1 /// KIR2DS2 /// KIR2DS3 /// KIR2DS4 /// KIR3DL3 /// KIR3DL3 /// KIR3DS1 (11738374_at) / RFU C1QL1 (11718748_at) / Fold change /veh C1QL1 (11718748_at) / RFU TMPRSS4 (11747572_a_at) / Fold change /veh TMPRSS4 (11747572_a_at) / RFU HAMP (11756126_x_at) / Fold change /veh HAMP (11756126_x_at) / RFU RNFT2 (11725882_a_at) / Fold change /veh RNFT2 (11725882_a_at) / RFU NR4A2 (11747474_a_at) / Fold change /veh NR4A2 (11747474_a_at) / RFU ABCC12 (11746883_a_at) / Fold change /veh ABCC12 (11746883_a_at) / RFU TMEM136 (11760407_x_at) / Fold change /veh TMEM136 (11760407_x_at) / RFU CLDN22 /// WWC2 (11732394_at) / Fold change /veh CLDN22 /// WWC2 (11732394_at) / RFU HLA-DPB1 (11760878_x_at) / Fold change /veh HLA-DPB1 (11760878_x_at) / RFU SPINT1 (11716480_a_at) / Fold change /veh SPINT1 (11716480_a_at) / RFU GAP43 (11754022_s_at) / Fold change /veh GAP43 (11754022_s_at) / RFU A4GNT (11735810_at) / Fold change /veh A4GNT (11735810_at) / RFU PRB3 (11715151_x_at) / Fold change /veh PRB3 (11715151_x_at) / RFU TUBB4B (11761932_at) / Fold change /veh TUBB4B (11761932_at) / RFU CAPN14 (11732068_a_at) / Fold change /veh CAPN14 (11732068_a_at) / RFU TMCC2 (11721928_a_at) / Fold change /veh TMCC2 (11721928_a_at) / RFU IRGQ (11745062_a_at) / Fold change /veh IRGQ (11745062_a_at) / RFU FAM174B (11720279_a_at) / Fold change /veh FAM174B (11720279_a_at) / RFU TMPRSS4 (11748680_a_at) / Fold change /veh TMPRSS4 (11748680_a_at) / RFU FAM212B (11763350_a_at) / Fold change /veh FAM212B (11763350_a_at) / RFU PLEKHG5 (11743358_a_at) / Fold change /veh PLEKHG5 (11743358_a_at) / RFU ZSCAN30 (11745921_a_at) / Fold change /veh ZSCAN30 (11745921_a_at) / RFU CMKLR1 (11741424_a_at) / Fold change /veh CMKLR1 (11741424_a_at) / RFU LOC101060620 /// MAPK8IP1 (11723275_at) / Fold change /veh LOC101060620 /// MAPK8IP1 (11723275_at) / RFU SPTSSB (11747773_x_at) / Fold change /veh SPTSSB (11747773_x_at) / RFU PRSS12 (11739890_at) / Fold change /veh PRSS12 (11739890_at) / RFU BIN1 (11741810_x_at) / Fold change /veh BIN1 (11741810_x_at) / RFU WNT11 (11732464_a_at) / Fold change /veh WNT11 (11732464_a_at) / RFU C10orf10 (11716521_a_at) / Fold change /veh C10orf10 (11716521_a_at) / RFU C5orf56 (11738089_at) / Fold change /veh C5orf56 (11738089_at) / RFU CYB561 (11721691_x_at) / Fold change /veh CYB561 (11721691_x_at) / RFU ANKRD19P (11752326_a_at) / Fold change /veh ANKRD19P (11752326_a_at) / RFU OR2T12 /// OR2T33 /// OR2T8 (11738714_s_at) / Fold change /veh OR2T12 /// OR2T33 /// OR2T8 (11738714_s_at) / RFU VCAN (11748164_a_at) / Fold change /veh VCAN (11748164_a_at) / RFU JSRP1 (11732532_at) / Fold change /veh JSRP1 (11732532_at) / RFU KRTAP10-11 (11738290_x_at) / Fold change /veh KRTAP10-11 (11738290_x_at) / RFU MYO3A (11730013_a_at) / Fold change /veh MYO3A (11730013_a_at) / RFU EBF3 (11725865_a_at) / Fold change /veh EBF3 (11725865_a_at) / RFU CAMK2N1 (11719241_x_at) / Fold change /veh CAMK2N1 (11719241_x_at) / RFU C5orf56 (11738088_a_at) / Fold change /veh C5orf56 (11738088_a_at) / RFU OLFML3 (11715873_a_at) / Fold change /veh OLFML3 (11715873_a_at) / RFU LOC100653217 /// NTM (11731650_a_at) / Fold change /veh LOC100653217 /// NTM (11731650_a_at) / RFU MAPK11 (11762145_a_at) / Fold change /veh MAPK11 (11762145_a_at) / RFU FIZ1 (11724087_x_at) / Fold change /veh FIZ1 (11724087_x_at) / RFU OASL (11726364_x_at) / Fold change /veh OASL (11726364_x_at) / RFU SOX15 (11748057_x_at) / Fold change /veh SOX15 (11748057_x_at) / RFU CD79A (11719716_a_at) / Fold change /veh CD79A (11719716_a_at) / RFU HIST1H1D (11736915_at) / Fold change /veh HIST1H1D (11736915_at) / RFU CASKIN2 (11723855_a_at) / Fold change /veh CASKIN2 (11723855_a_at) / RFU LOC730098 (11760151_x_at) / Fold change /veh LOC730098 (11760151_x_at) / RFU OR4N2 (11742367_at) / Fold change /veh OR4N2 (11742367_at) / RFU PRRT2 (11749266_a_at) / Fold change /veh PRRT2 (11749266_a_at) / RFU SNX32 (11753110_a_at) / Fold change /veh SNX32 (11753110_a_at) / RFU CDHR5 (11726645_a_at) / Fold change /veh CDHR5 (11726645_a_at) / RFU RCAN1 (11760418_a_at) / Fold change /veh RCAN1 (11760418_a_at) / RFU FAM167A (11723789_a_at) / Fold change /veh FAM167A (11723789_a_at) / RFU FAM26E (11764081_at) / Fold change /veh FAM26E (11764081_at) / RFU ISYNA1 (11749810_s_at) / Fold change /veh ISYNA1 (11749810_s_at) / RFU ACY1 (11761880_at) / Fold change /veh ACY1 (11761880_at) / RFU 11764098_at / Fold change /veh 11764098_at / RFU SAMD14 (11745864_x_at) / Fold change /veh SAMD14 (11745864_x_at) / RFU NPB (11741838_a_at) / Fold change /veh NPB (11741838_a_at) / RFU TMPRSS6 (11731388_a_at) / Fold change /veh TMPRSS6 (11731388_a_at) / RFU KRTAP10-2 (11738614_at) / Fold change /veh KRTAP10-2 (11738614_at) / RFU ARHGAP8 /// PRR5-ARHGAP8 (11727945_x_at) / Fold change /veh ARHGAP8 /// PRR5-ARHGAP8 (11727945_x_at) / RFU KRTAP5-7 /// NADSYN1 (11734609_at) / Fold change /veh KRTAP5-7 /// NADSYN1 (11734609_at) / RFU RASL12 (11751679_a_at) / Fold change /veh RASL12 (11751679_a_at) / RFU CDKN2B (11736163_a_at) / Fold change /veh CDKN2B (11736163_a_at) / RFU PRF1 (11729649_at) / Fold change /veh PRF1 (11729649_at) / RFU, ZNF638 /// ZNF638-IT1 / Fold change vs veh, ZNF638 /// ZNF638-IT1 / RFU, PANK3 / Fold change vs veh, PANK3 / RFU, SH3YL1 / Fold change vs veh, SH3YL1 / RFU, ZEB2 / Fold change vs veh, ZEB2 / RFU, NRIP1 / Fold change vs veh, NRIP1 / RFU, PTTG1IP / Fold change vs veh, PTTG1IP / RFU, CAPN2 / Fold change vs veh, CAPN2 / RFU, MED14 / Fold change vs veh, MED14 / RFU, SNORA58 / Fold change vs veh, SNORA58 / RFU, C1orf63 / Fold change vs veh, C1orf63 / RFU, LRRFIP1 / Fold change vs veh, LRRFIP1 / RFU, NDUFAF7 / Fold change vs veh, NDUFAF7 / RFU, SLC12A2 / Fold change vs veh, SLC12A2 / RFU, IBTK / Fold change vs veh, IBTK / RFU, ESF1 / Fold change vs veh, ESF1 / Fold change vs veh, TMEM50B / RFU, TAOK1 / Fold change vs veh, TAOK1 / RFU, ACBD3 / Fold change vs veh, ACBD3 / RFU, TMA16 / Fold change vs veh, TMA16 / RFU, RWDD3 / Fold change vs veh, RWDD3 / RFU, BCAT1 / Fold change vs veh, BCAT1 / RFU, EDEM3 / Fold change vs veh, EDEM3 / RFU, TMEM33 / Fold change vs veh, TMEM33 / RFU, WDR75 / Fold change vs veh, WDR75 / RFU, AHCTF1 / Fold change vs veh, AHCTF1 / RFU, TFRC / Fold change vs veh, TFRC / RFU, ZDHHC17 / Fold change vs veh, ZDHHC17 / RFU, NOM1 / Fold change vs veh, NOM1 / RFU, ARL8B / Fold change vs veh, ARL8B / RFU, ZBTB11 / Fold change vs veh, ZBTB11 / RFU, TAMM41 / Fold change vs veh, TAMM41 / RFU, KIAA1704 /// LOC100996395 / Fold change vs veh, KIAA1704 /// LOC100996395 / RFU, ING1 / Fold change vs veh, ING1 / RFU, TRMT61B / Fold change vs veh, TRMT61B / RFU, FUBP3 / Fold change vs veh, FUBP3 / RFU, TP53 / Fold change vs veh, TP53 / RFU, TNKS2 / Fold change vs veh, TNKS2 / RFU, ZFP14 / Fold change vs veh, ZFP14 / RFU, ACTR2 / Fold change vs veh, ACTR2 / RFU, PPP3R1 / Fold change vs veh, PPP3R1 / RFU, PIK3R1 / Fold change vs veh, PIK3R1 / RFU, HNRNPA1 / Fold change vs veh, HNRNPA1 / RFU, RNF170 / Fold change vs veh, RNF170 / RFU, ZNF28 / Fold change vs veh, ZNF28 / RFU, RNGTT / Fold change vs veh, RNGTT / RFU, OGT / Fold change vs veh, OGT / RFU, BRD1 / Fold change vs veh, BRD1 / RFU, MARS / Fold change vs veh, MARS / RFU, ZNF655 / Fold change vs veh, ZNF655 / RFU, FAHD1 / Fold change vs veh, FAHD1 / RFU, BDP1 / Fold change vs veh, BDP1 / RFU, LRRCC1 / Fold change vs veh, LRRCC1 / RFU, ARID1A / Fold change vs veh, ARID1A / RFU, ZNF146 / Fold change vs veh, ZNF146 / RFU, ZNF330 / Fold change vs veh, ZNF330 / RFU, GPN3 / Fold change vs veh, GPN3 / RFU, C9orf123 / Fold change vs veh, C9orf123 / RFU, N4BP2L2 / Fold change vs veh, N4BP2L2 / RFU, ARFIP1 / Fold change vs veh, ARFIP1 / RFU, FAM179B / Fold change vs veh, FAM179B / RFU, BCL10 / Fold change vs veh, BCL10 / RFU, UHRF1BP1L / Fold change vs veh, UHRF1BP1L / RFU, BET1 / Fold change vs veh, BET1 / RFU, CNOT2 / Fold change vs veh, CNOT2 / RFU, ZNF268 / Fold change vs veh, ZNF268 / Fold change vs veh, ZNF507 / RFU, DGCR2 / Fold change vs veh, DGCR2 / RFU, WDSUB1 / Fold change vs veh, WDSUB1 / Fold change vs veh, HSP90B1 /// MIR3652 / RFU, ADSS / Fold change vs veh, ADSS / RFU, GK / Fold change vs veh, GK / RFU, ZNF148 / Fold change vs veh, ZNF148 / RFU, TAF9 / Fold change vs veh, TAF9 / RFU, SLC1A5 / Fold change vs veh, SLC1A5 / RFU, SLMO2 / Fold change vs veh, SLMO2 / RFU, ABCC4 / Fold change vs veh, ABCC4 / RFU, LOC101060439 /// RAP1B / Fold change vs veh, LOC101060439 /// RAP1B / RFU, RFX7 / Fold change vs veh, RFX7 / RFU, GTPBP10 / Fold change vs veh, GTPBP10 / RFU, CNEP1R1 / Fold change vs veh, CNEP1R1 / RFU, BIVM-ERCC5 /// ERCC5 / Fold change vs veh, BIVM-ERCC5 /// ERCC5 / RFU, ILF3 / Fold change vs veh, ILF3 / RFU 11762660_at / Fold change /veh 11762660_at / RFU VCAN (11757783_s_at) / Fold change /veh VCAN (11757783_s_at) / RFU DDX43 (11728927_at) / Fold change /veh DDX43 (11728927_at) / RFU KRT8 (11758188_x_at) / Fold change /veh KRT8 (11758188_x_at) / RFU NKD1 (11759106_at) / Fold change /veh NKD1 (11759106_at) / RFU SRD5A1 (11742802_a_at) / Fold change /veh SRD5A1 (11742802_a_at) / RFU TPSAB1 /// TPSB2 (11721975_s_at) / Fold change /veh TPSAB1 /// TPSB2 (11721975_s_at) / RFU GSTM3 (11746129_a_at) / Fold change /veh GSTM3 (11746129_a_at) / RFU IL23R (11737362_x_at) / Fold change /veh IL23R (11737362_x_at) / RFU TMEM51 (11727254_a_at) / Fold change /veh TMEM51 (11727254_a_at) / RFU PIWIL2 (11732686_x_at) / Fold change /veh PIWIL2 (11732686_x_at) / RFU ORM1 (11744905_x_at) / Fold change /veh ORM1 (11744905_x_at) / RFU CCDC152 (11743942_at) / Fold change /veh CCDC152 (11743942_at) / RFU ECM1 (11717891_a_at) / Fold change /veh ECM1 (11717891_a_at) / RFU IL23R (11748794_a_at) / Fold change /veh IL23R (11748794_a_at) / RFU TNFAIP8L3 (11732012_x_at) / Fold change /veh TNFAIP8L3 (11732012_x_at) / RFU MBOAT4 (11741988_at) / Fold change /veh MBOAT4 (11741988_at) / RFU 11764193_at / Fold change /veh 11764193_at / RFU TMEM53 (11763286_at) / Fold change /veh TMEM53 (11763286_at) / RFU MAGEB2 (11727129_at) / Fold change /veh MAGEB2 (11727129_at) / RFU TMEM200A (11744735_a_at) / Fold change /veh TMEM200A (11744735_a_at) / RFU CCDC152 (11751479_a_at) / Fold change /veh CCDC152 (11751479_a_at) / RFU FAM211A (11726209_a_at) / Fold change /veh FAM211A (11726209_a_at) / RFU RGS16 (11746705_a_at) / Fold change /veh RGS16 (11746705_a_at) / RFU VCAN (11755009_s_at) / Fold change /veh VCAN (11755009_s_at) / RFU RHOB (11743442_s_at) / Fold change /veh RHOB (11743442_s_at) / RFU RGS16 (11720943_a_at) / Fold change /veh RGS16 (11720943_a_at) / RFU RGS16 (11720944_at) / Fold change /veh RGS16 (11720944_at) / RFU, VPS4B / Fold change vs veh, VPS4B / RFU, CREB1 / Fold change vs veh, CREB1 / RFU, DNAJC13 / Fold change vs veh, DNAJC13 / RFU, GNAQ / Fold change vs veh, GNAQ / RFU, CDK5R1 / Fold change vs veh, CDK5R1 / RFU, ZRANB3 / Fold change vs veh, ZRANB3 / RFU, CUL4A / Fold change vs veh, CUL4A / RFU, CCNY / Fold change vs veh, CCNY / RFU, UFL1 / Fold change vs veh, UFL1 / RFU, COG3 / Fold change vs veh, COG3 / RFU, DIAPH2 / Fold change vs veh, DIAPH2 / RFU, SKA2 / Fold change vs veh, SKA2 / RFU, AFF3 / Fold change vs veh, AFF3 / RFU, LMF1 / Fold change vs veh, LMF1 / RFU, IPO11 / Fold change vs veh, IPO11 / RFU, DFFB / Fold change vs veh, DFFB / RFU, FOXP1 / Fold change vs veh, FOXP1 / RFU, CARD8 / Fold change vs veh, CARD8 / RFU, STRN3 / Fold change vs veh, STRN3 / RFU, ADK / Fold change vs veh, ADK / RFU, RASSF2 / Fold change vs veh, RASSF2 / RFU, WIPF1 / Fold change vs veh, WIPF1 / RFU, LARP1B / Fold change vs veh, LARP1B / RFU, RASA1 / Fold change vs veh, RASA1 / RFU, RB1 / Fold change vs veh, RB1 / RFU, PPFIA1 / Fold change vs veh, PPFIA1 / RFU, MAT2A / Fold change vs veh, MAT2A / RFU, CCT5 / Fold change vs veh, CCT5 / RFU, WDR92 / Fold change vs veh, WDR92 / RFU, CUX1 / Fold change vs veh, CUX1 / RFU, TTC7A / Fold change vs veh, TTC7A / RFU, TMEM135 / Fold change vs veh, TMEM135 / RFU, DEPTOR / Fold change vs veh, DEPTOR / RFU, CPM / Fold change vs veh, CPM / RFU, DNAJB6 / Fold change vs veh, DNAJB6 / RFU, CACNA2D3 / Fold change vs veh, CACNA2D3 / RFU, DTX4 / Fold change vs veh, DTX4 / RFU, TFCP2 / Fold change vs veh, TFCP2 / RFU, GMCL1 /// GMCL1P1 / Fold change vs veh, GMCL1 /// GMCL1P1 / RFU, AEBP2 / Fold change vs veh, AEBP2 / RFU, SNHG1 /// SNORD22 /// SNORD25 /// SNORD26 /// SNORD27 /// SNORD28 /// SNORD29 /// SNORD31 / Fold change vs veh, SNHG1 /// SNORD22 /// SNORD25 /// SNORD26 /// SNORD27 /// SNORD28 /// SNORD29 /// SNORD31 / Fold change (Aza/veh), C12orf56 (ProbeSet 11735607_a_at) / Fold change (ACY-1035/veh), C12orf56 (ProbeSet 11735607_a_at) / Fold change (Aza/veh), FGFR1OP (ProbeSet 11751329_s_at) / Fold change (ACY-1035/veh), FGFR1OP (ProbeSet 11751329_s_at) / Fold change (Aza/veh), VPS36 (ProbeSet 11739960_a_at) / Fold change (ACY-1035/veh), VPS36 (ProbeSet 11739960_a_at) / RFU SYPL1 (11715823_x_at) / Fold change /veh SYPL1 (11715823_x_at) / RFU IGFBP7 (11715501_s_at) / Fold change /veh IGFBP7 (11715501_s_at) / RFU REEP3 (11722064_at) / Fold change /veh REEP3 (11722064_at) / RFU IGLL1 (11728026_x_at) / Fold change /veh IGLL1 (11728026_x_at): dose or concentration left out as unconfirmed
Conditions: MV-4-11 cells, 48 hours

For Nc1ncn([C@@H]2O[C@H](CO)[C@@H](O)[C@H]2O)c(=O)n1 [azacitidine], the “RFU SPTSSB (11747773_x_at)” value was 34.53 RFU.

From article PMC5218480 (PLoS ONE, 2017)
